The source of these data is ChEMBL document CHEMBL1151202, “New imidazole alkaloids from the Indonesian sponge Leucetta chagosensis” (J Nat Prod, 2004).

The structures appear in SMILES notation. Calls of active or inactive are those of the source. No cut-off for these calls is given here.

One series concerns Artemia salina. In words: Toxicity in Artemia salina at 20 ug/mL. The series is classed as organism-based. Conditions: in vivo.
The next series relates to Cladosporium herbarum. The series is described as follows: Antifungal activity against Cladosporium herbarum DSM 63422 at 20 ug/disk after 24 hrs by agar plate diffusion assay. The series is classed as functional.
The test system of the next series is L5178Y. In words: Cytotoxicity against mouse L5178Y cells at 10 ug/mL by MTT assay relative to control. The series is classed as functional. In general terms: Tetrazolium assays rely on reduction of a dye to a coloured formazan, in cell work by metabolically active cells.
For a further series, the system named is HeLa. The series is described as follows: Cytotoxicity against human HeLa cells at 10 ug/mL by MTT assay relative to control. The series is classed as functional.
For a further series, the system named is PC-12. In words: Cytotoxicity against rat PC12 cells by MTT assay. The series is classed as functional, cell-based.

`COc1ccc(-c2c3cc(O)c(OC)cc3cc3c2[nH]c(=N)n3C)cc1` [KEALIININE A] yielded an Activity with Artemia salina of 50%. Further, the outcome with Cladosporium herbarum was inactive.

As for `COc1ccc(Cc2[nH]c(=N)n(C)c2Cc2cc(OC)c(O)c(OC)c2)cc1` [NAAMINE G], the values for the Activity in the series with Artemia salina, with L5178Y and in the series with HeLa were 10%, 46% and 29%, respectively. For the same compound, the zone of inhibition at 20 µg/disc in the series on Cladosporium herbarum (DSM 63422, 24 h, read-out: IZ) is 20 mm. In the series with PC-12, the outcome was inactive.
